Measurements taken from paper PMC8769378, “Underlining the Importance of Peripheral Protic Functional Groups to Enhance the Proton Exchange of Gd-Based MRI Contrast Agents” (Inorganic Chemistry, 2021).
“And” between values parts separate entries of the source, which are not always exact repeats. Equal entries are not always repeated.

Legend:
[1] = Longitudinal relaxivity r1 and relaxivity vs pH profiles; format: physicochemical
Experimental: The longitudinal relaxivity values (r1) for GdL1 and GdL2, at 20 MHz (0.47 T), 298 K, and pH 7.4, are 4.7 and 5.1 mM^–1 s^–1, respectively. These are typical values of the clinical MRI contrast agents, i.e., low-molecular-weight q = 1 Gd^III chelates that tumble rapidly in solution.[1],[2] In particular, these values compare well with the r1 reported for GdHPDO3A[24] and other HPDO3A-like complexes such as GdHPDO3MA[25] or the series of Gd-hydroxypropylamide-DO3A (HPADO3A, Scheme 1)[7] complexes measured at the same experimental conditions.
At pH >3, the r1 values of GdL2 decrease with the increase of pH from 6.6 mM^–1 s^–1 to reach a plateau of 5.1 mM^–1 s^–1 around pH = 7.5. A further increase of the pH results in the slight increase of r1 reaching a maximum around pH = 9.5. Finally, at pH >9.5, another small decrease in r1 is observed. On the other hand, in the case of GdL1, the r1 values are independent from the pH in the range 4.0–7.5, whereas at pH >8.0, r1 increases up to 5.2 mM^–1 s^–1. The r1 values of GdL1 were measured in the pH range 4–10 in order to avoid the hydrolysis of the methyl ester. […] Then, the overall relaxivity, r1, is given by eq 1: [drawing 1] 1 where r1^is, r1^os, and r1^pr are the relaxivity components due to the inner and outersphere water molecules and the −OH group, respectively. r1^pr can be expressed as follows:[26]−[28] [drawing 2] 2
(§1) Proton relaxation measurements (1/T1) and the resulting 1/T1 NMRD profiles were measured on a fast-field cycling (FFC) Stelar SmarTracer relaxometer over a continuum of magnetic field strengths from 0.000 24 to 0.25 T (corresponding to 0.01–10 MHz proton Larmor frequencies). The relaxometer operates under computer control with an absolute uncertainty in 1/T1 of ±1%. […] Furthermore, the real temperature inside the probe head was additionally monitored by a Fluke 52 k/j digital thermometer (Fluke, Zürich, Switzerland). The gadolinium concentration was determined by measuring the bulk magnetic susceptibility shifts of the t-BuOH ^1H NMR signal. Additional data in the 20–120 MHz frequency range were obtained with a high field relaxometer (Stelar) equipped with the HTS-110 3T metrology cryogen-free superconducting magnet. […] The pH-dependent relaxivity measurements of GdL1 and GdL2 complexes were carried out by direct titration of the samples (GdL2, 3.0 < pH < 12.5; GdL1, 4 < pH < 10). The pH was adjusted by the stepwise addition of concentrated NaOH or HCl solution. Calculations were performed with the computer program Micromath Scientist, version 2.0 (Salt Lake City, UT).

[2] = Analysis of 1/T1 ^1H NMRD profiles; format: physicochemical
Experimental: The relaxometric characterization of the Gd complexes was carried out by recording their ^1H nuclear magnetic relaxation dispersion (NMRD) profiles at 283, 298, and 310 K in the proton Larmor frequency range 0.01–120 MHz, corresponding to magnetic field strengths varying between 2.34 × 10^–4 and 3 T (Figure 2). The shape of the NMRD profiles and their temperature dependence (r1 decreases with increasing temperature) reflect the general behavior of small Gd^III complexes, characterized by a constant r1 value at low fields, a dispersion around 4–6 MHz, and another region at high fields (>20 MHz) where r1 slightly decreases. […] A least-squares fit of the profiles was carried out in terms of the established theory of paramagnetic relaxation expressed by the Solomon–Bloembergen–Morgan[30],[31] and Freed’s[32] equations for the innersphere (IS) and outersphere (OS) proton relaxation mechanisms, respectively (Table 3). Because of the large number of parameters involved in the fitting procedure, some of them were fixed to known or reasonable values: The hydration number q was fixed to 1, and the distance between Gd^III and the protons of the bound water molecule, r, was fixed to 3.0 Å; the distance of closest approach, a, of the outersphere water molecules to Gd^III was set to 4.0 Å, and for the relative diffusion coefficient D, standard values of 1.7, 2.24, and 3.1 × 10^–5 cm^2 s^–1 (283, 298, and 310 K) were used. […] The difference in relaxivity between GdL1 and GdL2 cannot account for the difference in τR since their molecular weight is very similar; therefore, we considered that the pendant propionate moiety of GdL2 allows for the presence of second sphere (SS) water molecules in H-bonding interaction with the carboxylate group at a distance from Gd^III sufficiently short (<4 Å) and with a residence time sufficiently long to be affected by the rotation. […] Therefore, we analyzed the NMRD profiles for GdL2 also considering the SS contribution, expressed in terms of two additional parameters: the number qSS of second sphere water molecules and their rotational correlation time, τR(SS). The average distance from the paramagnetic center was arbitrarily fixed at 3.5 Å, an intermediate value between those of water molecules in the inner (3.0 Å) and outer (4.0 Å) solvation shell.[33] In addition, since GdL1 and GdL2 are structurally related to the recently reported GdHPADO3A-like complexes having a carbonyl group in place of the methyl group present in GdHPDO3A, τM was fixed to that reported for GdHPADO3A at pH 7 (20 ns).[7] The electronic and reorientation parameters reported in Table 3 for GdL1 and GdL2 are in good agreement with those of other GdHPDO3A-like complexes. Finally, considering the contribution of two second sphere water molecules characterized by a rotational correlation time τR(SS) of 30 ps, the contribution of the SS molecules to the relaxivity of GdL2 is about 0.3 mM^–1 s^–1 at 20 MHz and 298 K almost equal to the Δr1 between GdL1 and GdL2.
as §1, with “The pH was adjusted by the stepwise addition of concentrated NaOH or HCl solution. Calculations were performed with the computer program Micromath Scientist, version 2.0 (Salt Lake City, UT).” left out

O=C([O-])CN1CCN(CC(=O)[O-])CCN(CC(O)C(=O)O)CCN(CC(=O)[O-])CC1.[Gd+3] (centres unmarked) [GdL2]
longitudinal relaxivity r1 ([1]; 20 MHz (0.47 T), 298 K, pH 7.4): 5.1 mM^–1 s^–1 | r1 plateau ([1]; around pH = 7.5, 21 MHz, 298 K, 0.15 M NaCl): 5.1 mM^–1 s^–1 | relaxivity increase by acid-catalyzed proton exchange ([1]; pH <6): ca. 30% | r1 at the acidic start of the pH profile ([1]; pH about 3, 21 MHz, 298 K, 0.15 M NaCl): 6.6 mM^–1 s^–1 | contribution of the second sphere (SS) water molecules to the relaxivity ([2]; 20 MHz, 298 K, qSS = 2, τR(SS) 30 ps): about 0.3 mM^–1 s^–1 | ^298r1-60-MHz ([2]; 298 K, 60 MHz, pH 7.4): 4.6 ± 0.1 mM^–1 s^–1 | ^310r1-60-MHz ([2]; 310 K, 60 MHz, pH 7.4): 3.6 ± 0.1 mM^–1 s^–1 | Δ^2 ([2]; NMRD fit): 8.5 ± 0.2 10^19 s^–2 | τv ([2]; NMRD fit): 13.7 ± 0.5 ps | τR ([2]; NMRD fit, q = 1): 68 ± 2 ps | τR(SS) ([2]; determined for qSS = 2 and rSF = 3.5 Å): 30 ps and 30 ± 2 ps
